These compounds were tested against HGFR (c-Met) (Homo sapiens, UniProt P08581) (assay: HGFR Continuous-Coupled Spectrophotometric Assay). Conditions: HGFR enzyme 50 nM, Met-2 peptide substrate, 37° C.
Assay type: biochemical
Description: The general procedure is as follows: compounds and kinase assay reagents are introduced into test wells. The assay is initiated by addition of the kinase enzyme. Enzyme inhibitors reduce the measured activity of the enzyme.
In the continuous-coupled spectrophotometric assay the time-dependent production of ADP by the kinase is determined by analysis of the rate of consumption of NADH by measurement of the decrease in absorbance at 340 nm. As the PK produces ADP it is re-converted to ATP by reaction with phosphoenol pyruvate and pyruvate kinase. Pyruvate is also produced in this reaction. Pyruvate is subsequently converted to lactate by reaction with lactate dehydrogenase, which simultaneously converts NADH to NAD.
HGFR Continuous-Coupled Spectrophotometric Assay
This assay analyzes the tyrosine kinase activity of HGFR on the Met-2 substrate peptide, a peptide derived from the activation loop of the HGFR.
• 1. […] Dissolve up in 200 mM HEPES, pH 7.5 at 10 mM stock. • 3. 1 M PEP (phospho-enol-pyruvate) in 200 mM HEPES, pH 7.5 • 4. 100 mM NADH (B-Nicotinamide Adenine Dinucleotide, Reduced Form) in 200 mM HEPES, pH 7.5 • 5. 4 M MgCl2 (Magnesium Chloride) in ddH2O 6. 1 M DTT (Dithiothreitol) in 200 mM HEPES, pH 7.5 • 7. 15 Units/mL LDH (Lactic Dehydrogenase) • 8. 15 Units/mL PK (Pyruvate Kinase) • 9. 5M NaCl dissolved in ddH2O • 10. Tween-20 (Protein Grade) 10% Solution • 11. 1 M HEPES buffer: (N-[2-Hydroxethyl]piperazine-N-[2-ethanesulfonic acid]) Sodium Salt. Dissolve in ddH2O, adjust pH to 7.5, bring volume to 1 L. Filter at 0.1 μm. • 12. […] 100% DMSO (SIGMA) • 14. […] Beckman DU-650 w/ micro cell holders • 18. Beckman 4-position micro cell cuvette Procedure:
Prep Dilution Buffer (DB) for Enzyme (For 30 mL prep) • 1. DB final concentration is 2 mM DTT, 25 mM NaCl2, 5 mM MgCl2, 0.01% Tween-20, and 50 mM HEPES buffer, pH 7.5. • 2. Make up 50 mM HEPES by adding 1.5 mL 1 M HEPES into 28.1 mL of ddH2O. Add rest of the reagents. Into 50 mL conical vial, add 60 μL of 1M DTT, 150 μL 5M NaCl2, 150 μL 1M MgCl2, and 30 μL of 10% Tween-20 to give total volume of 30 mL. • 3. Vortex for 5-10 seconds. • 4. Aliquot out DB at 1 mL/tube and label tubes as “DB HGFR” • 5. Note: This can be prepared and stored ahead of time. • 6. Freeze un-used aliquots in microcentrifuge tubes at −20° C. freezer.
Prep Compounds • 1. For compound dilution plate, add 4 μL of 10 mM stock into column 1 of plate, and bring volume to 100 μL with 100% DMSO. • 2. Set up the Precision 2000 dilution method. A final concentration of 200 μM compound in 50% DMSO, 100 mM HEPES (1:2 serial dilution).
Prep Coupled Enzymatic Buffer:
1. Final concentration in assay:
• 2. For a 10 mL reaction buffer add 10 μL of 1M PEP, 33 μL of 100 mM NADH, 50 μL of 4M MgCl2, 20 μL of 1M DTT, 6 μL of 500 mM ATP, and […] of 10 mM Met-2 peptide into 100 mM HEPES buffer pH 7.5 and vortex/mix. • 3. Add coupling enzymes, LDH and PK, into reaction mix. Mix by gentle inversion.
1. Spectrophotometer settings:
• 2. Add 85 μL of CE reaction mix into each well of assay plate. • 3. Add 5 μL of diluted compound into a well of the assay plate. • 4. Add 5 μL of 50% DMSO for negative control into last column of assay plate. • 5. Mix with multi-channel pipettor or orbital shaker. • 6. Pre-incubate for 10 minutes at 37° C. • 7. Add 10 μL of 500 nM HGFR to each well of assay plate; the final HGFR concentration is 50 nM in a total final volume of 100 μL. • 8. Measure activity for 10 minutes at λ=340 nm and 37° C.
Ki data were obtained using the HGFR Continuous-Coupled Spectrophotometric Assay, and IC50 data were obtained using the Cellular HGFR Autophosphorylation Assay, both of which are described above.

Chain of HGFR (c-Met) (P08581 974-1390): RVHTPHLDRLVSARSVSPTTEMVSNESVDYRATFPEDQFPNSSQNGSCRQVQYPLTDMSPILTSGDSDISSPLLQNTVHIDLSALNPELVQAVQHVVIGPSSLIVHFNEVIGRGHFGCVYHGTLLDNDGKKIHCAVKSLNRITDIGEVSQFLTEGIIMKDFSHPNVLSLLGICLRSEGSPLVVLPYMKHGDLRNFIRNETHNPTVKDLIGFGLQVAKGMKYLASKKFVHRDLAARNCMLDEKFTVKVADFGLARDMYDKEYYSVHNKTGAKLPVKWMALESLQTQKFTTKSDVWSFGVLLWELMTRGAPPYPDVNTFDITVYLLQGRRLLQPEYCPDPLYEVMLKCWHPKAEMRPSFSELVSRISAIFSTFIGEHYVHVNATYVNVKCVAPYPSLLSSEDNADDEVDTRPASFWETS

Ki [nM] | SMILES
21.6 | COc1cc(-c2cnc(N)c(OC(C)c3c(Cl)ccc(F)c3Cl)c2)ccc1CN1C[C@@H](C)N[C@@H](C)C1 (stereo partly drawn) [Example 27, 3-[1-(2,6-dichloro-3-fluorophenyl)ethoxy]-5-(4-{[(3R,5S)-3,5-dimethylpiperazin-1-yl]methyl}-3-methoxyphenyl)pyridin-2-amine]
26.4 | COc1cc(-c2cnc(N)c(OC(C)c3c(Cl)ccc(F)c3Cl)c2)ccc1C(=O)N1CCNCC1 (stereo not drawn) [Example 28, 3-[1-(2,6-dichloro-3-fluorophenyl)ethoxy]-5-[3-methoxy-4-(piperazin-1-ylcarbonyl)phenyl]pyridin-2-amine]
12.3 | COc1cc(-c2cnc(N)c(OC(C)c3c(Cl)ccc(F)c3Cl)c2)ccc1CN1CCNCC1 (stereo not drawn) [Example 29, 3-[1-(2,6-dichloro-3-fluorophenyl)ethoxy]-5-[3-methoxy-4-(piperazin-1-ylmethyl)phenyl]pyridin-2-amine]
21.9 | CC(Oc1cc(-c2ccc(C3(O)CCNCC3)nc2)cnc1N)c1c(Cl)ccc(F)c1Cl (stereo not drawn) [Example 30]
149 | COc1cc(-c2cnc(N)c(OC(C)c3c(Cl)ccc(F)c3Cl)c2)ccc1COC(=O)N(C)C (stereo not drawn) [Example 31, 4-{6-amino-5-[1-(2,6-dichloro-3-fluorophenyl)ethoxy]pyridin-3-yl}-2-methoxybenzyl dimethylcarbamate]
14700 | CC(Oc1cc(-c2ccc(OCC(=O)N3CCNCC3)cc2)cnc1N)c1c(Cl)ccc(F)c1Cl (stereo not drawn) [Example 33, 2-(4-{6-Amino-5-[1-(2,6-dichloro-3-fluoro-phenyl)-ethoxy]-pyridin-3-yl}-phenoxy)-1-piperazin-1-yl-ethanone]
40 | CC(Oc1cc(-c2ccc(OC3CCNCC3)cc2)cnc1N)c1c(Cl)ccc(F)c1Cl (stereo not drawn) [Example 34, 3-[1-(2,6-Dichloro-3-fluoro-phenyl)-ethoxy]-5-[4-(piperidin-4-yloxy)-phenyl]-pyridin-2-ylamine]
6280 | C[C@@H]1CN(C(=O)c2ccc(-c3cnc(N)c(OC4CCCCc5ccc(F)cc54)c3)cc2)C[C@H](C)N1 (stereo partly drawn) [Example 36, {4-[6-Amino-5-(3-fluoro-6,7,8,9-tetrahydro-5H-benzocyclohepten-5-yloxy)-pyridin-3-yl]-phenyl}-((3R,5S)-3,5-dimethyl-piperazin-1-yl)-methanone]
8270 | Nc1ncc(-c2ccc(OCCN3CCCC3)cc2)cc1OC1CCCCc2ccc(F)cc21 (stereo not drawn) [Example 37, 3-(3-Fluoro-6,7,8,9-tetrahydro-5H-benzocyclohepten-5-yloxy)-5-[4-(2-pyrrolidin-1-yl-ethoxy)-phenyl]-pyridin-2-ylamine]
7120 | CS(=O)(=O)Nc1ccc(-c2cnc(N)c(OC3CCCCc4ccc(F)cc43)c2)cc1 (stereo not drawn) [Example 38, N-{4-[6-Amino-5-(3-fluoro-6,7,8,9-tetrahydro-5H-benzocyclohepten-5-yloxy)-pyridin-3-yl]-phenyl}-methanesulfonamide]
95 | CC(Oc1cc(-c2ccc(NC(=O)N3CCC(NC4CC4)CC3)cc2)cnc1N)c1c(Cl)ccc(F)c1Cl (stereo not drawn) [Example 39, 4-Cyclopropylamino-piperidine-1-carboxylic acid (4-{6-amino-5-[1-(2,6-dichloro-3-fluoro-phenyl)-ethoxy]-pyridin-3-yl}-phenyl)-amide]
88 | CC(Oc1cc(-c2ccc(NC(=O)N3CCNCC3)cc2)cnc1N)c1c(Cl)ccc(F)c1Cl (stereo not drawn) [Example 40, Piperazine-1-carboxylic acid (4-{6-amino-5-[1-(2,6-dichloro-3-fluoro-phenyl)-ethoxy]-pyridin-3-yl}-phenyl)-amide]
2090 | CCOC(=O)c1[nH]c(C)c(-c2cnc(N)c(OC(C)c3c(Cl)ccc(F)c3Cl)c2)c1C (stereo not drawn) [Example 41, 4-{6-Amino-5-[1-(2,6-dichloro-3-fluoro-phenyl)-ethoxy]-pyridin-3-yl}-3,5-dimethyl-1H-pyrrole-2-carboxylic acid ethyl ester]
1250 | Cc1[nH]c(C(=O)O)c(C)c1-c1cnc(N)c(OC(C)c2c(Cl)ccc(F)c2Cl)c1 (stereo not drawn) [Example 42, 4-{6-Amino-5-[1-(2,6-dichloro-3-fluoro-phenyl)-ethoxy]-pyridin-3-yl}-3,5-dimethyl-1H-pyrrole-2-carboxylic acid]
451 | Cc1[nH]c(C(=O)NCCCN(C)C)c(C)c1-c1cnc(N)c(OC(C)c2c(Cl)ccc(F)c2Cl)c1 (stereo not drawn) [Example 43, 4-{6-Amino-5-[1-(2,6-dichloro-3-fluoro-phenyl)-ethoxy]-pyridin-3-yl}-3,5-dimethyl-1H-pyrrole-2-carboxylic acid (3-dimethylamino-propyl)-amide]
262 | Cc1[nH]c(C(=O)NCCN(C)C)c(C)c1-c1cnc(N)c(OC(C)c2c(Cl)ccc(F)c2Cl)c1 (stereo not drawn) [Example 44, 4-{6-Amino-5-[1-(2,6-dichloro-3-fluoro-phenyl)-ethoxy]-pyridin-3-yl}-3,5-dimethyl-1H-pyrrole-2-carboxylic acid (2-dimethylamino-ethyl)-amide]
96 | CC(Oc1cc(-c2cccc(NC(=O)N3CCNCC3)c2)cnc1N)c1c(Cl)ccc(F)c1Cl (stereo not drawn) [Example 45, Piperazine-1-carboxylic acid (3-{6-amino-5-[1-(2,6-dichloro-3-fluoro-phenyl)-ethoxy]-pyridin-3-yl}-phenyl)-amide]
154 | C[C@@H](Oc1nc(-c2ccc(C(=O)O)cc2)cnc1N)c1c(Cl)ccc(F)c1Cl [Example 47, 4-{5-Amino-6-[(R)-1-(2,6-dichloro-3-fluoro-phenyl)-ethoxy]-pyrazin-2-yl}-benzoic acid]
27 | C[C@@H](Oc1nc(-c2ccc(C(=O)N3CCNCC3)cc2)cnc1N)c1c(Cl)ccc(F)c1Cl [Example 48, (4-{5-Amino-6-[(R)-1-(2,6-dichloro-3-fluoro-phenyl)-ethoxy]-pyrazin-2-yl}-phenyl)-piperazin-1-yl-methanone]
335 | C[C@@H](Oc1nc(-c2ccc(C(=O)N3CCN(C(=O)OC(C)(C)C)CC3)cc2)cnc1N)c1c(Cl)ccc(F)c1Cl [Example 49, 4-(4-{5-Amino-6-[(R)-1-(2,6-dichloro-3-fluoro-phenyl)-ethoxy]-pyrazin-2-yl}-benzoyl)-piperazine-1-carboxylic acid tert-butyl ester]
1840 | CC(Oc1cc(Br)cnc1N)c1c(C#N)ccc(N(C)C)c1Cl (stereo not drawn) [Example 50, 2-{1-[(2-amino-5-bromopyridin-3-yl)oxy]ethyl}-3-chloro-4-(dimethylamino)benzonitrile]
2090 | CC(Oc1cc(Br)cnc1N)c1c(C#N)ccc(F)c1Cl (stereo not drawn) [Example 51, 2-[1-(2-Amino-5-bromo-pyridin-3-yloxy)-ethyl]-3-chloro-4-fluoro-benzonitrile]
2140 | CC(Oc1cc(-c2ccc(C(=O)N3CCC(N4CCCC4)CC3)cc2)cnc1N)c1ccc(Cl)cc1Cl (stereo not drawn) [Example 52, (4-{6-Amino-5-[1-(2,4-dichloro-phenyl)-ethoxy]-pyridin-3-yl}-phenyl)-(4-pyrrolidin-1-yl-piperidin-1-yl)-methanone]

Same assay, conditions: compound at 1 μM

inhibition at 1 µM [%] | SMILES
9 | Nc1ncc(Br)cc1OC1CCCCc2ccc(F)cc21 (stereo not drawn) [Example 35, 5-Bromo-3-(3-fluoro-6,7,8,9-tetrahydro-5H-benzocyclohepten-5-yloxy)-pyridin-2-ylamine]

Source: patent US20060178374A1, “Aminoheteroaryl compounds as protein kinase inhibitors” (AGOURON PHARMACEUTICALS, INC., priority 2004, published 2006)
